Laboratory results reported in PubChem BioAssay (NCI).
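Values below derive from 48-hour exposures of cells grown in 96-well plates, with endpoints linearly interpolated between the two concentrations bracketing the appropriate inhibition level. Abbreviation: GI50, concentration required for 50% inhibition of growth. TGI denotes the concentration required for complete inhibition of growth.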

Columns and labels:
Test in all cases: NCI anticancer screen, dose series, 48 h
[1] = test system: A549 NSCLC
[2] = test system: K-562 leukemia
[3] = test system: NCI-H460 lung
[4] = test system: MALME-3M melanoma
[5] = test system: SF-295 CNS
[6] = test system: OVCAR-5 ovarian
[7] = test system: HCC-2998 colon
[8] = test system: NCI-H226 lung
[9] = test system: PC-3 prostate
[10] = test system: UACC-257 melanoma
[11] = test system: ACHN renal
[12] = test system: SF-539 CNS
[13] = test system: SW-620 colon
[14] = test system: SN12C renal
[15] = test system: MDA-MB-231 breast
[16] = test system: CAKI-1 renal
[17] = test system: SNB-19 CNS
[18] = test system: KM12 colon
[19] = test system: COLO 205 colon
[20] = test system: OVCAR-8 ovarian
[21] = test system: U251 CNS
[22] = test system: MCF7 breast
[23] = test system: UACC-62 melanoma
[24] = test system: IGROV1 ovarian
[25] = test system: MDA-MB-435
[26] = test system: SNB-75 CNS
[27] = test system: TK-10 renal
[28] = test system: DU-145 prostate
[29] = test system: NCI-H522 lung
[30] = test system: SK-OV-3 ovarian
[31] = test system: OVCAR-3 ovarian
[32] = test system: SK-MEL-28 melanoma
[33] = test system: HL-60(TB) leukemia
[34] = test system: RXF 393 renal
[35] = test system: NCI-H23 lung
[36] = test system: SK-MEL-2 melanoma
[37] = test system: HCT-116 colon
[38] = test system: SR leukemia
[39] = test system: HCT-15 colon
[40] = test system: HOP-92 NSCLC
[41] = test system: SF-268 CNS
[42] = test system: M14 melanoma
[43] = test system: HOP-62 NSCLC
[44] = test system: CCRF-CEM leukemia
[45] = test system: MOLT-4 leukemia
[46] = test system: T-47D breast
[47] = test system: UO-31 renal
[48] = test system: OVCAR-4 ovarian
[49] = test system: BT-549 breast
[50] = test system: A498 renal
[51] = test system: HS 578T breast
[52] = test system: MDA-MB-468 breast
[53] = test system: EKVX NSCLC
[54] = test system: HT29 colon
[55] = test system: RPMI-8226 leukemia
[56] = test system: LOX IMVI melanoma
[57] = test system: SK-MEL-5 melanoma
[58] = test system: 786-0 renal

Compound: N#CC1=C(c2cccs2)Nc2c(c(-c3ccccc3)nn2-c2ccccc2)C12C(=O)Nc1ccc(Cl)cc12 (stereo unspecified)
- GI50 [1]: 4.12 µM
- TGI [1]: 15.9 µM
- GI50 [2]: 4.46 µM
- TGI [2]: 34.1 µM
- GI50 [3]: 4.07 µM
- TGI [3]: 14.1 µM
- GI50 [4]: 14.3 µM
- TGI [4]: 27.4 µM
- GI50 [5]: 3.74 µM
- TGI [5]: 15.9 µM
- GI50 [6]: 7.31 µM
- TGI [6]: 20.9 µM
- GI50 [7]: 7.13 µM
- TGI [7]: 19.8 µM
- GI50 [8]: 11.6 µM
- TGI [8]: 28.2 µM
- GI50 [9]: 3.18 µM
- TGI [9]: 15.2 µM
- GI50 [10]: 12.9 µM
- TGI [10]: 25.8 µM
- GI50 [11]: 4.05 µM
- TGI [11]: 14.8 µM
- GI50 [12]: 4.77 µM
- TGI [12]: 17 µM
- GI50 [13]: 4.56 µM
- TGI [13]: 16.6 µM
- GI50 [14]: 4.46 µM
- TGI [14]: 16.8 µM
- GI50 [15]: 4.52 µM
- TGI [15]: 16.9 µM
- GI50 [16]: 5.26 µM
- TGI [16]: 18.6 µM
- GI50 [17]: 3.12 µM
- TGI [17]: 14.2 µM
- GI50 [18]: 3.66 µM
- TGI [18]: 13.6 µM
- GI50 [19]: 14.3 µM
- TGI [19]: 29.5 µM
- GI50 [20]: 4.92 µM
- TGI [20]: 17.9 µM
- GI50 [21]: 3.88 µM
- TGI [21]: 14.4 µM
- GI50 [22]: 4.95 µM
- TGI [22]: 19.4 µM
- GI50 [23]: 4.13 µM
- TGI [23]: 16.9 µM
- GI50 [24]: 4.93 µM
- TGI [24]: 17.7 µM
- GI50 [25]: 11.1 µM
- TGI [25]: 23.9 µM
- GI50 [26]: 2.6 µM
- TGI [26]: 13 µM
- GI50 [27]: 5.81 µM
- TGI [27]: 20.5 µM
- GI50 [28]: 13.9 µM
- TGI [28]: 30.3 µM
- GI50 [29]: 2.6 µM
- TGI [29]: 9.87 µM
- GI50 [30]: 10.6 µM
- TGI [30]: 23.6 µM
- GI50 [31]: 6.88 µM
- TGI [31]: 19.7 µM
- GI50 [32]: 11.1 µM
- TGI [32]: 23.2 µM
- GI50 [33]: 3.51 µM
- TGI [33]: 11.7 µM
- GI50 [34]: 3.14 µM
- TGI [34]: 13.3 µM
- GI50 [35]: 5.57 µM
- TGI [35]: 18.2 µM
- GI50 [36]: 3.97 µM
- TGI [36]: 14.6 µM
- GI50 [37]: 3.95 µM
- TGI [37]: 16.3 µM
- GI50 [38]: 4.93 µM
- TGI [38]: 36.3 µM
- GI50 [39]: 3.74 µM
- TGI [39]: 14.1 µM
- GI50 [40]: 2.47 µM
- TGI [40]: 7.94 µM
- GI50 [41]: 3.52 µM
- TGI [41]: 19 µM
- GI50 [42]: 4.94 µM
- TGI [42]: 18.4 µM
- GI50 [43]: 7.02 µM
- TGI [43]: 21.4 µM
- GI50 [44]: 3.35 µM
- TGI [44]: 20.7 µM
- GI50 [45]: 4.95 µM
- TGI [45]: 23.4 µM
- GI50 [46]: 5.84 µM
- TGI [46]: 33.8 µM
- GI50 [47]: 2.54 µM
- TGI [47]: 12.2 µM
- GI50 [48]: 4.77 µM
- TGI [48]: 21.1 µM
- GI50 [49]: 3.02 µM
- TGI [49]: 13.1 µM
- GI50 [50]: 16.8 µM
- TGI [50]: 31.2 µM
- GI50 [51]: 3.22 µM
- TGI [51]: 18.6 µM
- GI50 [52]: 4.45 µM
- TGI [52]: 16.6 µM
- GI50 [53]: 4.33 µM
- TGI [53]: 18 µM
- GI50 [54]: 4.82 µM
- TGI [54]: 17.1 µM
- GI50 [55]: 4.3 µM
- TGI [55]: 27.5 µM
- GI50 [56]: 6.46 µM
- TGI [56]: 20.4 µM
- GI50 [57]: 10.8 µM
- TGI [57]: 23.1 µM
- GI50 [58]: 6.43 µM
- TGI [58]: 20.6 µM
